Reference: patent US20090048301A1 (IMCLONE SYSTEMS INCORPORATED, priority 2003, published 2009)

Key:
bovine tubulin = experiment: In vitro tubulin polymerization assay (turbidity at 340 nm); type: biochemical; settings: 10 μM compound, 30 minute data point, vs 1% DMSO control
Outline: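 Bovine tubulin (97%, <3% MAPs) at 3 mg/ml final in G-PEM pH 7 with 1 mM GTP and 5% glycerol, added cold to compound wells at 37° C (1% DMSO final). A340 read each minute for 30 min; percent inhibition from 30-min point versus DMSO control.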

[1] = tested on: A431, human epidermoid carcinoma cells; experiment: Cell cycle analysis (FACS), mitotic arrest in G2/M; type: cell-based; settings: Homo sapiens, A-431, 24 h, read-out: FACS Assay: concentration required to achieve inhibition in FACS assay
Protocol: The cell cycle analysis was performed as follows. Cancer cells (A431, human epidennoid carcinoma cells) were maintained in culture in D-MEM media with 10% FBS and 1 mg/ml glutamate. Prior to experiment, cells were plated onto 6-well plates for a final density of 500,000 cells/well at the time of treatment. Cells were treated with the compounds of the invention at a concentration of about 0.01 to 1 μM final concentrations (final 0.1% DMSO) for 24 hours, then trypsinized, collected, rinsed in PBS (phosphate buffered saline), and fixed in 70% cold ethanol overnight at 4° C. The cells were then rinsed with PBS, resuspended in PBS with 0.2% Tween, RNAse was added (final 1 μg/ml), cells were incubated at 37° C. for 15 min, followed by addition of Propidium Iodide (final 50 μg/ml), and a 30 minute incubation at room temperature. DNA ploidy was analyzed using flow cytometers (Epics Excel, Beckman-Coulter, or Guava PCA-96, Guava Technologies) and mitotic arrest characterized by massive accumulation of cells in the G2/M phase of cell cycle.
Cancer cells (A431, human epidermoid cells) were maintained in culture in D-MEM media with 10% FBS and 1 mg/ml glutamate. Prior to experiment, cells are plated onto 6-well plates for a final density of 500,000 cells/well at the time of treatment. Cells were treated with compounds at 0.01-1 μM final concentrations (final […] DMS 0) for 24 hours, then trypsinized, collected, rinsed in PBS (phosphate buffered saline), and fixed in 70% cold ethanol overnight at 4° C. Cells were then rinsed with PBS, resuspended in PBS with 0.2% Tween, RNAse was added (final 1 μg/ml), cells were incubated at 37° C. for 15 min, followed by addition of Propidium Iodide (final 50 μg/ml), and a 30 minute incubation at room temperature. DNA ploidy was analyzed using cell sorters (Epics Excel, Beckman-Coulter, or Guava PCA-96, Guava Technologies) and mitotic arrest characterized by massive accumulation of cells in the G2/M phase of cell cycle.

SMILES | Tubulin Assay: percent inhibition at 10 μM based on 30 minute data (bovine tubulin) [%] | minimal effective concentration [1] [µM]
c1cnc(Nc2ccc3c(c2)OCO3)c(-c2nnc(Nc3ccc4c(c3)OCO4)[nH]2)c1 [Compound 32, Benzo[1,3]dioxol-5-yl-{3-[5-(benzo[1,3]dioxol-5-ylamino)-4H-[1,2,4]triazol-3-yl]-pyridin-2-yl}-amine] | 54 | 10
c1cnc(NCc2ccncc2)c(-c2nnc(Nc3ccc4c(c3)OCO4)[nH]2)c1 [Compound 38, {3-[5-(Benzo[1,3]dioxol-5-ylamino)-4H-[1,2,4]triazol-3-yl]-pyridin-2-yl}-pyridin-4-ylmethyl-amine] | 77 | 0.1
COc1cccc(Nc2nnc(-c3cccnc3NCc3ccncc3)[nH]2)c1 [Compound 39, {3-[5-(3-Methoxy-phenylamino)-4H-[1,2,4]triazol-3-yl]-pyridin-2-yl}-pyridin-4-ylmethyl-amine] | 83 | 0.1
c1coc(CNc2ncccc2-c2nnc(Nc3ccc4c(c3)OCO4)[nH]2)c1 [Compound 40, {3-[5-(Benzo[1,3]dioxol-5-ylamino)-4H-[1,2,4]triazol-3-yl]-pyridin-2-yl}-furan-2-ylmethyl-amine] | 71 | 1
COc1cccc(Nc2nnc(-c3cccnc3NCc3ccco3)[nH]2)c1 [Compound 42, Furan-2-ylmethyl-{3-[5-(3-methoxy-phenylamino)-4H-[1,2,4]triazol-3-yl]-pyridin-2-yl}-amine] | 69 | 10
Fc1ccc(CNc2ncccc2-c2nnc(Nc3ccc4c(c3)OCO4)[nH]2)cc1F [Compound 43, {3-[5-(Benzo[1,3]dioxol-5-ylamino)-4H-[1,2,4]triazol-3-yl]-pyridin-2-yl}-(3,4-difluoro-benzyl)-amine] | 84 | 1
Fc1ccc(CNc2ncccc2-c2nnc(Nc3ccc4c(c3)OCCO4)[nH]2)cc1F [Compound 44, (3,4-Difluoro-benzyl)-{3-[5-(2,3-dihydro-benzo[1,4]dioxin-6-ylamino)-4H-[1,2,4]triazol-3-yl]-pyridin-2-yl}-amine] | 84 | 1
COc1cccc(Nc2nnc(-c3cccnc3NCc3ccc(F)c(F)c3)[nH]2)c1 [Compound 45, (3,4-Difluoro-benzyl)-{3-[5-(3-methoxy-phenylamino)-4H-[1,2,4]triazol-3-yl]-pyridin-2-yl}-amine] | 83 | 1
COc1cc(CNc2cc(N3CCN(C)CC3)ccc2-c2nnc(Nc3ccc4c(c3)OCCO4)o2)cc(OC)c1 [Compound 235, (2,3-Dihydro-benzo[1,4]dioxin-6-yl)-{5-[2-(3,5-dimethoxy-benzylamino)-4-(4-methyl-piperazin-1-yl)-phenyl]-[1,3,4]oxadiazol-2-yl}-amine] | 24 | –
CN1CCN(c2ccc(-c3nnc(Nc4ccc5c(c4)OCCO5)o3)c([N+](=O)[O-])c2)CC1 [Compound 236, (2,3-Dihydro-benzo[1,4]dioxin-6-yl)-{5-[4-(4-methyl-piperazin-1-yl)-2-nitro-phenyl]-[1,3,4]oxadiazol-2-yl}-amine] | 59 | –
Nc1ccccc1-c1nnc(Nc2ccc3c(c2)OCO3)o1 [Compound 237a, [5-(2-Amino-phenyl)-[1,3,4]oxadiazol-2-yl]-benzo[1,3]dioxol-5-yl-amine] | 53 | –
COc1ccc(S(=O)(=O)Nc2ccccc2-c2nnc(Nc3ccc4c(c3)OCO4)o2)cc1OC [Compound 238, N-{2-[5-(Benzo[1,3]dioxol-5-ylamino)-[1,3,4]oxadiazol-2-yl]-phenyl}-3,4-dimethoxy-benzenesulfonamide] | 65 | –
O=S(=O)(Nc1ccccc1-c1nnc(Nc2ccc3c(c2)OCO3)o1)c1cccc(OC(F)(F)F)c1 [Compound 239, N-{2-[5-(Benzo[1,3]dioxol-5-ylamino)-[1,3,4]oxadiazol-2-yl]-phenyl}-3-trifluoromethoxy-benzenesulfonamide] | 49 | –
Cc1cc(C)cc(CS(=O)(=O)Nc2ccccc2-c2nnc(Nc3ccc4c(c3)OCO4)o2)c1 [Compound 240, N-{2-[5-(Benzo[1,3]dioxol-5-ylamino)-[1,3,4]oxadiazol-2-yl]-phenyl}-C-(3,5-dimethyl-phenyl)-methanesulfonamide] | 20 | –
N#Cc1ccc(S(=O)(=O)Nc2ccccc2-c2nnc(Nc3ccc4c(c3)OCCO4)o2)cc1 [Compound 242, 4-Cyano-N-{2-[5-(2,3-dihydro-benzo[1,4]dioxin-6-ylamino)-[1,3,4]oxadiazol-2-yl]-phenyl}-benzenesulfonamide] | 92 | –
COc1cc(Nc2ncccc2-c2nnc(NS(=O)(=O)c3cccc(OC)c3)o2)cc(OC)c1 [Compound 243, N-{5-[2-(3,5-Dimethoxy-phenylamino)-pyridin-3-yl]-[1,3,4]oxadiazol-2-yl}-3-methoxy-benzenesulfonamide] | 55 | –
COc1cc(Nc2ncccc2-c2nnc(N)o2)cc(OC)c1 [Compound 243a, [3-(5-Amino-[1,3,4]oxadiazol-2-yl)-pyridin-2-yl]-(3,5-dimethoxy-phenyl)-amine] | 46 | –
c1ccc(-c2cnc(Nc3ccc4c(c3)OCCO4)o2)c(NCc2ccc3c(c2)OCCO3)c1 [Compound 245, (2,3-Dihydro-benzo[1,4]dioxin-6-yl)-(5-{2-[(2,3-dihydro-benzo[1,4]dioxin-6-ylmethyl)-amino]-phenyl}-oxazol-2-yl)-amine] | 93 | –
Fc1ccc(CNc2ccccc2-c2cnc(Nc3ccc4c(c3)OCCO4)o2)cc1F [Compound 247, {5-[2-(3,4-Difluoro-benzylamino)-phenyl]-oxazol-2-yl}-(2,3-dihydro-benzo[1,4]dioxin-6-yl)-amine] | 94 | –
c1cncc(CNc2ccccc2-c2cnc(Nc3ccc4c(c3)OCCO4)o2)c1 [Compound 248, (2,3-Dihydro-benzo[1,4]dioxin-6-yl)-(5-{2-[(pyridin-3-ylmethyl)-amino]-phenyl}-oxazol-2-yl)-amine] | 79 | –
COc1cccc(Nc2ncc(-c3ccccc3NCc3cc(OC)cc(OC)c3)o2)c1 [Compound 251, {5-[2-(3,5-Dimethoxy-benzylamino)-phenyl]-oxazol-2-yl}-(3-methoxy-phenyl)-amine] | 30 | –
COc1cccc(Nc2ncc(-c3ccccc3NCc3ccc(F)c(F)c3)o2)c1 [Compound 252, {5-[2-(3,4-Difluoro-benzylamino)-phenyl]-oxazol-2-yl}-(3-methoxy-phenyl)-amine] | 27 | –
c1ccc(-c2cnc(Nc3ccc4c(c3)OCCO4)o2)c(OCc2ccncc2)c1 [Compound 253, (2,3-Dihydro-benzo[1,4]dioxin-6-yl)-{5-[2-(pyridin-4-ylmethoxy)-phenyl]-oxazol-2-yl}-amine] | 44 | –
c1cncc(COc2ccccc2-c2cnc(Nc3ccc4c(c3)OCCO4)o2)c1 [Compound 254, (2,3-Dihydro-benzo[1,4]dioxin-6-yl)-{5-[2-(pyridin-3-ylmethoxy)-phenyl]-oxazol-2-yl}-amine] | 95 | –
COc1cccc(Nc2ncc(-c3ccccc3OCc3ccncc3)o2)c1 [Compound 256, (3-Methoxy-phenyl)-{5-[2-(pyridin-4-ylmethoxy)-phenyl]-oxazol-2-yl}-amine] | 50 | –
COc1cccc(Nc2ncc(-c3ccccc3OCc3cccnc3)o2)c1 [Compound 257, (3-Methoxy-phenyl)-{5-[2-(pyridin-3-ylmethoxy)-phenyl]-oxazol-2-yl}-amine] | 27 | –
COCCCOc1ccccc1-c1cnc(Nc2cccc(OC)c2)o1 [Compound 258, (3-Methoxy-phenyl)-{5-[2-(3-methoxy-propoxy)-phenyl]-oxazol-2-yl}-amine] | 47 | –
